In patent US20220408724A1, “METHOD FOR CONTROLLING METABOLISM OF BRANCHED FATTY ACID” (KAO CORPORATION, priority 2019, published 2022):

How the values were obtained:
Type in all cases: cell-based
[1] = system: Escherichia coli (NBRC3972); experiment: Suppression of metabolism of 14-methylhexadecanoic acid on cotton fabric
Protocol: (§1) A methanol solution in which 14-methylhexadecanoic acid (SIGMA-ALDRICH) was dissolved was added dropwise to 3 cm×3 cm pieces of sterilized plain-weave cotton fabric to make it adhered to the fabric. The adhesion amount of 14-methylhexadecanoic acid was set to 10 μg per piece of the plain-weave cotton fabric (100 μg/fabric g).
(§2) Further, a methanol solution in which each metabolism controlling agent was dissolved was prepared and added dropwise to the fabric to which 14-methylhexadecanoic acid adhered, and it was thereafter dried for an hour. This fabric was placed in a sterilized screw tube bottle No. 3 (Maruemu Corporation) and 100 μl of the bacterial suspension was inoculated thereto, and culture was carried out under 37° C.; conditions for 21 hours.
(§3) 3 ml of methanol was added to the screw tube bottle after culture, and extraction was carried out under ultrasonic irradiation for 30 minutes (20° C.). The extraction liquid was mixed with a (trimethylsilyl)diazomethane hexane solution (FUJIFILM Wako Pure Chemical Corporation) at 9:1 (volume ratio) and left overnight under room temperature and dark place conditions. After that, 14-methylhexadecanoic acid remaining on the fabric was quantified by GC. The quantification conditions for GC are as follows. • GC: Agilent 7890A • GC column: Agilent DB-1 30 m×250 μm×0.25 μm • Temperature rise condition: 50° C. (held for 3 minutes)-(10° C./min)-300° C. (held for 5 minutes) • Sample injection volume: 1 μl • Split ratio: 1:12 • Detector: FID
(§4) The residual amount of 14-methylhexadecanoic acid after culture on the fabric to which the metabolism controlling agent was added was quantified, and the ratio of the residual amount to that of 14-methylhexadecanoic acid in the case of adding no metabolism controlling agent (control) was calculated as a metabolism suppression rate (%). The higher a numerical value thereof is, the more the metabolism is suppressed. Note that the metabolism suppression rate was determined by the following formula:
(§5) Metabolism suppression rate(%)=[1−(100−A)/(100−B)]×100 • A: residual amount of 14-methylhexadecanoic acid of example or comparative example (μg/fabric g) • B: residual amount of 14-methylhexadecanoic acid of control (μg/fabric g)
(§6) The metabolism of 14-methylhexadecanoic acid by bacteria of the genus Escherichia (Escherichia coli) was tested in the same manner as in example 1.
(§7) In this example, Escherichia coli (NBRC3972) was used as a microorganism.
(§8) Further, in this example, a bacterial suspension of 10^6 (CFU/ml) prepared by using an NB liquid medium diluted to 1/10 with ion exchange water was used as a bacterial suspension.
(§9) Note that, in this example, C12OH (1-dodecanol) was used as the metabolism controlling agent.

Rhodotorula mucilaginosa [2] = experiment: as above; details: agent 250 μg/fabric g
Protocol: as §1, §2, §3, §4, §5
The metabolism of 14-methylhexadecanoic acid by yeast of the genus Rhodotorula was tested in the same manner as in example 1.
In this example, Rhodotorula mucilaginosa (strain isolated from clothing) was used as a microorganism.
Further, in this example, the bacteria were precultured under conditions of a PDA agar medium (Difco), 30° C.; and 48 hours.
Further, in this example, a bacterial suspension of 10^7 (CFU/ml) prepared by using a PDB liquid medium (Difco) diluted to 1/10 with ion exchange water was used as a bacterial suspension.

Rhodotorula mucilaginosa [3] = experiment: Suppression of metabolite 4-methylhexanoic acid from 14-methylhexadecanoic acid; details: agent 250 μg/fabric g
Protocol: The extraction liquid was mixed with (a 1000 ppm methanol solution of) an ADAM reagent of Funakoshi Co., Ltd. at 1:1 (volume ratio) and left overnight under room temperature and dark place conditions. […] The quantification conditions are as follows. […] The higher a numerical value thereof is, the more the metabolism is suppressed. Note that the metabolite suppression rate was determined by the following formula: […] In this example, Rhodotorula mucilaginosa (strain isolated from clothing) was used as a microorganism. Further, in this example, the bacteria were precultured under conditions of a PDA agar medium (Difco), 30° C.; and 48 hours. Further, in this example, a bacterial suspension of 10^7 (CFU/ml) prepared by using a PDB liquid medium (Difco) diluted to 1/10 with ion exchange water was used as a bacterial suspension.

[4] = system: Escherichia coli (NBRC3972); experiment: as above
Protocol: (§10) After culture on fabric prepared in the same manner as in the above (1), 3 ml of methanol was added, and extraction was carried out under ultrasonic irradiation for 30 minutes (20° C.). The extraction liquid was mixed with (a 1000 ppm methanol solution of) an ADAM reagent of Funakoshi Co., Ltd. at 1:1 (volume ratio) and left overnight under room temperature and dark place conditions. After that, 4-methyl-3-hexenoic acid as a metabolite from 14-methylhexadecanoic acid was quantified by HPLC. The quantification conditions are as follows.
(§11) The production amount of 4-methyl-3-hexenoic acid after culture on the fabric to which each metabolism controlling agent was added was quantified, and the ratio of the production amount to that of 4-methyl-3-hexenoic acid in the case of adding no metabolism controlling agent (control) was calculated as a metabolite suppression rate (%). The higher a numerical value thereof is, the more the metabolism is suppressed. Note that the metabolite suppression rate was determined by the following formula:
(§12) Metabolite suppression rate(%)=100×[(D−C)/D] • C: production amount of metabolite of example or comparative example (μg/fabric g) • D: production amount of metabolite of control (μg/fabric g)
as §6, §7, §8
(§13) Further, in this example, 4-methylhexanoic acid was quantified as a metabolite from 14-methylhexadecanoic acid, and the metabolite suppression rate was determined in the same manner as in example 1.
as §9

[5] = system: Escherichia coli (NBRC3972); experiment: Measurement of viable bacterial count on fabric
Protocol: (§14) After culture on fabric prepared in the same manner as in the above (1), 9 mL of an LP diluent (manufactured by NIHON PHARMACEUTICAL CO., LTD.) was added, and the extraction of the bacteria was carried out under ultrasound for 10 minutes. The extraction liquid was poured and mixed to an SCD-LP agar medium (NIHON PHARMACEUTICAL CO., LTD.), and culture was thereafter carried out at 37° C.; for a day. The number of colonies obtained on each piece of the fabric was counted, and a common logarithm value thereof was measured as the viable bacterial count. […] In addition, the […], the more the viable bacterial count of the microorganism is maintained.
as §6, §7, §8, §9

Micrococcus aloeverae [6] = experiment: Measurement of viable bacterial count on fabric; details: agent 250 μg/fabric g
Protocol: as §14
(§15) The metabolism of 14-methylhexadecanoic acid by bacteria of the genus Micrococcus was tested in the same manner as in example 1.
(§16) In this example, Micrococcus aloeverae (strain isolated from clothing) was used as a microorganism.
(§17) Further, in this example, a bacterial suspension of 10^7 (CFU/ml) prepared by using an SCD liquid medium (NIHON PHARMACEUTICAL CO., LTD.) diluted to 1/10 with ion exchange water was used as a bacterial suspension.
as §9

Staphylococcus aureus [7] = experiment: Suppression of metabolism of 14-methylhexadecanoic acid on cotton fabric; details: agent 250 μg/fabric g
Protocol: as §1, §2, §3, §4, §5
(§18) The metabolism of 14-methylhexadecanoic acid by bacteria of the genus Staphylococcus (Staphylococcus aureus) was tested in the same manner as in example 1.
(§19) In this example, Staphylococcus aureus (strain isolated from clothing) was used as a microorganism.
(§20) Further, in this example, a bacterial suspension of 10^7 (CFU/ml) prepared by using an NB liquid medium diluted to 1/10 with ion exchange water was used as a bacterial suspension.

Micrococcus aloeverae [8] = experiment: as above; details: agent 250 μg/fabric g
Protocol: as §1, §2, §3, §4, §5, §15, §16, §17, §9

Micrococcus aloeverae [9] = experiment: Suppression of metabolite 2-methylbutanoic acid from 14-methylhexadecanoic acid; details: agent 250 μg/fabric g
Protocol: as §10, §11, §12, §15, §16, §17
Further, in this example, 2-methylbutanoic acid was quantified as a metabolite from 14-methylhexadecanoic acid, and the metabolite suppression rate was determined in the same manner as in example 1.
as §9

Staphylococcus aureus [10] = experiment: Suppression of metabolite 4-methylhexanoic acid from 14-methylhexadecanoic acid; details: agent 250 μg/fabric g
Protocol: as §10, §11, §12, §18, §19, §20, §13, §9

Staphylococcus aureus [11] = experiment: Measurement of viable bacterial count on fabric; details: agent 250 μg/fabric g
Protocol: as §14, §18, §19, §20, §9

Row | Compound | Metabolism suppression rate (%) ([1]; agent 500 μg/fabric g) | Metabolism suppression rate (%) ([1]; agent 1000 μg/fabric g) | Metabolism suppression rate (%) (Rhodotorula mucilaginosa [2]) | Metabolite suppression rate (%) (Rhodotorula mucilaginosa [3]) | Metabolite suppression rate (%) ([4]; agent 500 μg/fabric g) | Metabolite suppression rate (%) ([4]; agent 1000 μg/fabric g) | Bacterial count (Log (cfu/fabric cm^2)) ([5]; agent 500 μg/fabric g) | Bacterial count (Log (cfu/fabric cm^2)) ([5]; agent 1000 μg/fabric g) | Bacterial count (Log (cfu/fabric cm^2)) (Micrococcus aloeverae [6]) | Metabolism suppression rate (%) (Staphylococcus aureus [7]) | Metabolism suppression rate (%) (Micrococcus aloeverae [8]) | Metabolite suppression rate (%) (Micrococcus aloeverae [9]) | Metabolite suppression rate (%) (Staphylococcus aureus [10]) | Bacterial count (Log (cfu/fabric cm^2)) (Staphylococcus aureus [11])
1 | CCCCCCCCCO [Example C9OH, 1-nonyl alcohol] | 13 | 25 | 14 | 21 | 31 | 33 | 6.5 Log (cfu/fabric cm^2) | 6.3 Log (cfu/fabric cm^2) | – | – | – | – | – | –
2 | CCCCCCCCCCO [Example C10OH, 1-decanol] | 16 | 38 | 51 | 46 | 42 | 75 | 6.5 Log (cfu/fabric cm^2) | 6.4 Log (cfu/fabric cm^2) | 7.0 Log (cfu/fabric cm^2) | 16 | 33 | 51 | 35 | 5.5 Log (cfu/fabric cm^2)
3 | CCCCCCCCCCCCOCCO [Example C12E1, ethylene glycol mono-1-dodecyl ether] | – | – | 24 | 41 | – | – | – | – | – | – | – | – | – | –
4 | CCCCCCCCCCCCOCCOCCO [Example C12E2, diethylene glycol mono-1-dodecyl ether, reference compound] | −2 | – | – | – | −2 | – | 6.5 Log (cfu/fabric cm^2) | – | 6.8 Log (cfu/fabric cm^2) | 7 | −11 | 8 | – | –
5 | CCCCCCCCCCCCCO [Example C13OH, 1-tridecanol] | – | – | – | – | – | – | – | – | 6.7 Log (cfu/fabric cm^2) | – | 41 | 59 | – | –
6 | CCCCCCCCCCCCCCO [Example C14OH, 1-tetradecanol] | 27 | 67 | 14 | 45 | 47 | 77 | 6.7 Log (cfu/fabric cm^2) | 6.5 Log (cfu/fabric cm^2) | – | 42 | – | – | 53 | 5.6 Log (cfu/fabric cm^2)
7 | CCCCCCCCCCCCCCCCO [Example C16OH, 1-hexadecanol] | – | 18 | 24 | 38 | – | 27 | – | 6.6 Log (cfu/fabric cm^2) | – | 16 | – | – | 20 | 6.1 Log (cfu/fabric cm^2)
8 | CCCCCCCCCCCCCCCCCCO [Example C18OH, 1-octadecanol, reference compound] | −15 | 3 | 2 | – | – | 0 | 6.2 Log (cfu/fabric cm^2) | 5.9 Log (cfu/fabric cm^2) | 6.8 Log (cfu/fabric cm^2) | −1 | −7 | 1 | – | 5.6 Log (cfu/fabric cm^2)
